# Test system: NOMO1
# Test: cell viability relative to DMSO control; higher = less cytotoxic
# Conditions: 48 h
# Procedure, shortened: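 Three leukemia lines were tested: NOMO1 and SEM at 500 cells/well and P12-Ichikawa at 1000 cells/well. Each was adapted for at least four passages in each medium and seeded in 5 μl in 1536-well plates, and library compounds in DMSO were pin-dosed from 47 μM to 0.79 nM in 11 threefold steps. After 48 h at 37°C, CellTiter-Glo One luminescence was read. Viability is a percentage relative to DMSO wells on each plate, with cell-free wells as background.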
# [1] = HPLM + 10% dialyzed FBS, 0.000781 µM
# [2] = HPLM + 10% dialyzed FBS, 0.00234 µM
# [3] = HPLM + 10% dialyzed FBS, 0.00702 µM
# [4] = HPLM + 10% dialyzed FBS, 0.0211 µM
# [5] = HPLM + 10% dialyzed FBS, 0.0632 µM
# [6] = HPLM + 10% dialyzed FBS, 0.19 µM
# [7] = HPLM + 10% dialyzed FBS, 0.569 µM
# [8] = HPLM + 10% dialyzed FBS, 1.71 µM
# [9] = HPLM + 10% dialyzed FBS, 5.12 µM
# [10] = HPLM + 10% dialyzed FBS, 15.4 µM
# [11] = HPLM + 10% dialyzed FBS, 46.1 µM
# [12] = RPMI 5 mM glucose + 10% FBS, 0.000781 µM
# [13] = RPMI 5 mM glucose + 10% FBS, 0.00234 µM
# [14] = RPMI 5 mM glucose + 10% FBS, 0.00702 µM
# [15] = RPMI 5 mM glucose + 10% FBS, 0.0211 µM
# [16] = RPMI 5 mM glucose + 10% FBS, 0.0632 µM
# [17] = RPMI 5 mM glucose + 10% FBS, 0.19 µM
# [18] = RPMI 5 mM glucose + 10% FBS, 0.569 µM
# [19] = RPMI 5 mM glucose + 10% FBS, 1.71 µM
# [20] = RPMI 5 mM glucose + 10% FBS, 5.12 µM
# [21] = RPMI 5 mM glucose + 10% FBS, 15.4 µM
# [22] = RPMI 5 mM glucose + 10% FBS, 46.1 µM
# [23] = RPMI 5 mM glucose + 10% dialyzed FBS, 0.000781 µM
# [24] = RPMI 5 mM glucose + 10% dialyzed FBS, 0.00234 µM
# [25] = RPMI 5 mM glucose + 10% dialyzed FBS, 0.00702 µM
# [26] = RPMI 5 mM glucose + 10% dialyzed FBS, 0.0211 µM
# [27] = RPMI 5 mM glucose + 10% dialyzed FBS, 0.0632 µM
# [28] = RPMI 5 mM glucose + 10% dialyzed FBS, 0.19 µM
# [29] = RPMI 5 mM glucose + 10% dialyzed FBS, 0.569 µM
# [30] = RPMI 5 mM glucose + 10% dialyzed FBS, 1.71 µM
# [31] = RPMI 5 mM glucose + 10% dialyzed FBS, 5.12 µM
# [32] = RPMI 5 mM glucose + 10% dialyzed FBS, 15.4 µM
# [33] = RPMI 5 mM glucose + 10% dialyzed FBS, 46.1 µM
SMILES,cell viability [1],cell viability [2],cell viability [3],cell viability [4],cell viability [5],cell viability [6],cell viability [7],cell viability [8],cell viability [9],cell viability [10],cell viability [11],cell viability [12],cell viability [13],cell viability [14],cell viability [15],cell viability [16],cell viability [17],cell viability [18],cell viability [19],cell viability [20],cell viability [21],cell viability [22],cell viability [23],cell viability [24],cell viability [25],cell viability [26],cell viability [27],cell viability [28],cell viability [29],cell viability [30],cell viability [31],cell viability [32],cell viability [33]
CN(C)CCCC1(c2ccc(F)cc2)OCc2cc(C#N)ccc21 (stereo not drawn),107%,103%,111%,90.7%,100%,94%,91.8%,106%,68.4%,88.8%,74%,88.5%,101%,102%,88.9%,98.5%,89.5%,91.4%,106%,57.9%,79.9%,84.4%,87.5%,90%,96.4%,85%,90.4%,84.5%,77.4%,82.2%,55.3%,81%,72.6%
Cc1ccc([C@@H]2O[C@H](CO)[C@@H](O)[C@H](O)[C@H]2O)cc1Cc1ccc(-c2ccc(F)cc2)s1,122%,138%,122%,129%,127%,129%,119%,127%,142%,122%,85.3%,,,,,,,,,,,,,,,,,,,,,,
CCN(CC)CCNC(=O)c1c(C)[nH]c(/C=C2\C(=O)Nc3ccc(F)cc32)c1C,79.5%,103%,109%,124%,87.1%,23.4%,30.7%,23%,29.1%,6.81%,4.98%,106%,103%,109%,113%,115%,45.5%,16.1%,21.9%,24.7%,11.5%,3.98%,97.7%,110%,100%,117%,117%,43.1%,22.3%,25.9%,31.8%,11.3%,3.82%
CN1CCc2c(c3ccccc3n2Cc2ccc(C(=O)NO)cc2)C1,76%,78.8%,76.3%,79.8%,80%,80.5%,82.6%,87.6%,97.5%,64.7%,38.6%,75.2%,70.2%,77.2%,82.5%,74.1%,73.4%,80.9%,76.5%,75.8%,78.7%,47.2%,71.5%,69.8%,91.9%,91.1%,84.6%,87.7%,89.5%,98%,92.5%,72.3%,53.5%
CNC(=O)c1ccc2c(c1)NC(=O)/C2=C(\Nc1cccc(CN(C)C)c1)c1ccccc1,85.5%,109%,103%,100%,99.9%,106%,95%,91.9%,45.9%,63.4%,0.559%,93.7%,84.5%,93.6%,94.9%,93.1%,93.3%,95.1%,87.2%,80%,66.5%,1.26%,74.6%,91.7%,90.5%,90.7%,80%,98.9%,90.3%,89.1%,75.9%,57.7%,1.81%
NC(=O)c1cccc(-c2cc(Nc3ccc(OC(F)(F)F)cc3)ncn2)c1,88.6%,99.5%,96%,93.9%,108%,101%,97.2%,94.1%,103%,84.5%,81.4%,85.8%,91%,93.4%,95.7%,90%,103%,103%,85.8%,90.3%,84.1%,80.5%,91.7%,94.7%,84.3%,86.1%,93.3%,92.8%,88.2%,89.1%,94.2%,79.6%,91.7%
CC(C)(N)C(=O)N[C@H](COCc1ccccc1)C(=O)N1CCC2(CC1)CN([S+](C)(=O)[O-])c1ccccc12,,,,,,,,,,,,117%,122%,132%,124%,123%,123%,122%,115%,113%,109%,110%,,,,,,,,,,,
C[C@]12CC[C@H]3[C@@H](CC(=C)\C4=C\C(=O)\C=C/[C@]34C)[C@@H]1CCC2=O,111%,105%,92.2%,107%,105%,99.1%,99.1%,113%,119%,99.6%,52.8%,99.5%,89.3%,95.8%,90.4%,92.6%,92.1%,97.8%,90.6%,81.6%,80.3%,74.9%,75.8%,100%,99.7%,108%,98.3%,91.6%,94.4%,102%,92.5%,86.4%,61.8%
CO[C@@H](C(=O)N1Cc2[nH]nc(NC(=O)c3ccc(N4CCN(C)CC4)cc3)c2C1)c1ccccc1,88%,93.2%,102%,94.2%,72.2%,62.2%,58.6%,53.3%,54.1%,66.8%,71.7%,80.4%,79.4%,79.7%,83.2%,81.5%,64.4%,51.5%,50.9%,55.8%,53.4%,56.3%,83.7%,87.2%,88.5%,88.7%,71.9%,52.5%,59.3%,47.4%,48.9%,55.3%,54.3%
